The text below walks through data of ChEMBL document CHEMBL4732177 (J Med Chem, 2021).

Series [1] concerns the target T1, Neurotensin receptor type 1 (Homo sapiens, UniProt P30989). Description: Displacement of [125I]Tyr3-neurotensin from human recombinant NTS1 stably expressed in CHO cell membranes. On the set-up: species or system Cell membrane. A general note: In a radioligand displacement assay an active substance lowers the binding of a labelled ligand.
The subject of series [2] is Rattus norvegicus. Description: Antinociceptive activity in Sprague-Dawley rat model assessed as maximum possible effect at 150 microg/kg, IT measured every 10 mins for 60 mins by radiant heat tail-flick test relative to control. The series is classed as functional. The settings on record: dose 150 µg/kg, 1 h.
The target of series [3] is T2, Neurotensin receptor type 2 (Homo sapiens, UniProt O95665). Nature of the series: Binding affinity to NTS2 (unknown origin).
T2 sequence (O95665 whole entry): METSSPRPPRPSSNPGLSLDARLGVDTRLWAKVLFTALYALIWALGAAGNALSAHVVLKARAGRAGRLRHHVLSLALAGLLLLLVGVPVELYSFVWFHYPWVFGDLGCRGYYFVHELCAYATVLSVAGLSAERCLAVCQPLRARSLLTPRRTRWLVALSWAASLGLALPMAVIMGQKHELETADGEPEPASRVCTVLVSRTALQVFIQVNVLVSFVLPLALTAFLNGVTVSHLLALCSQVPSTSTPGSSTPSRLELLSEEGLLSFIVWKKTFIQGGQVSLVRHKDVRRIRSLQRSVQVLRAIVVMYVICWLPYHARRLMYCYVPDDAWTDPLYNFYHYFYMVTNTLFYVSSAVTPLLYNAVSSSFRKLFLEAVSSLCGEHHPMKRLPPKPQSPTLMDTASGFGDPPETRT
For series [4], the target named is Neurotensin receptor type 1 (Mus musculus, UniProt O88319). Nature of the series: Displacement of [3H]-neurotensin from NTS1 in mouse brain membrane incubated for 30 mins by liquid scintillation counter analysis. The series is classed as cell membranes.
Sequence of Neurotensin receptor type 1 (Mus musculus, UniProt O88319) (O88319 whole entry): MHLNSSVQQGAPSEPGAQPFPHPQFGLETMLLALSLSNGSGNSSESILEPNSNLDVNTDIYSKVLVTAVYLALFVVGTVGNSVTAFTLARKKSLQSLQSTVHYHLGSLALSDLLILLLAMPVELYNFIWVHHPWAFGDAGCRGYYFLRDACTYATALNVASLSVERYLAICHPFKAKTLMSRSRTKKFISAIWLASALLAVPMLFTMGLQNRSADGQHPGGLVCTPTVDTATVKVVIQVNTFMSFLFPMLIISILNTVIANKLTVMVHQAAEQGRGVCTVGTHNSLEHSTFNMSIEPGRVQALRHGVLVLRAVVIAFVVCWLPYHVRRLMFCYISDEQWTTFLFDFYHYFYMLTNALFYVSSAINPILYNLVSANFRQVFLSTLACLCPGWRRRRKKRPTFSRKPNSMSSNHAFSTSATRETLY
In series [5] the test system is Rattus norvegicus. Nature of the series: Antinociceptive activity in Sprague-Dawley rat model assessed as maximum possible effect at 90 microg/kg, IT measured every 10 mins for 60 mins by radiant heat tail-flick test relative to control. Format: functional. The settings on record: dose 90 µg/kg, 1 h. In general terms: In hot-plate and tail-flick tests a longer latency is read as antinociception.

For series [6], the target named is T2, Neurotensin receptor type 2. Description: Displacement of [125I]Tyr3-neurotensin from human recombinant NTS2 stably expressed in human 1321N1 cell membranes incubated for 60 mins by gamma counter analysis. Set-up: species or system Cell membrane.
Series [7] is described as follows: Stability of compound in rat plasma assessed as half life at 1 mM incubated for 1 to 20 mins by UPLC-MS analysis. The series is classed as ADME, cell-free. The settings on record: time 1-20 min.
Series [8] relates to Rattus norvegicus. Nature of the series: Antinociceptive activity in Sprague-Dawley rat model assessed as maximum efficacy causing increase in tail withdrawal latency administered intrathecally measured every 10 mins for 60 mins by radiant heat tail-flick test. Format: functional. The conditions noted are these: 1 h.
Series [9] is described as follows: Induction of hypothermia in Sprague-Dawley rat assessed as reduction in body temperature at 150 microg/kg, IT measured every 10 mins upto 60 mins by thermistor probe analysis. The settings on record: in vivo, icv_or_intrathecal, 0.15 mg/kg, dose 150 µg/kg.
A short description of series [10]: Stability of compound in rat CSF assessed as half life at 1 mM incubated for 24 hrs by UPLC-MS analysis. The series is classed as ADME, tissue-based, Cerebrospinal fluid.
Series [11] has as its target T1, Neurotensin receptor type 1. Description: Displacement of [125I]Tyr3-neurotensin from human recombinant NTS1 stably expressed in CHO-K1 cell membranes incubated for 60 mins by gamma counter analysis. Set-up: species or system Cell membrane.
Series [12] relates to Rattus norvegicus. Nature of the series: Antiallodynic activity in Sprague-Dawley rat model of complete Freund's adjuvant-induced chronic inflammatory pain assessed as increase in paw withdrawl threshold at 150 microg/kg, IT dosed on day 7 and 14 measured at 15 to 120 mins post dose relative to control. Format: functional. The settings on record: dose 150 µg/kg; time 7-14 day.

A short description of series [13]: Cardiotoxicity in Sprague-Dawley rat assessed as decrease in mean arterial blood pressure at 0.1 mg/kg, iv measured up to 1000 seconds. The series is classed as toxicity, organism-based. The conditions noted are these: in vivo, time <=1000 sec.
Series [14] deals with Ileum. Nature of the series: Myorelaxant activity in Sprague-Dawley rat ileum assessed as reduction in carbachol-induced contractions at 10 ^-11 to 10^-5 M by force transducer relaxation assay. Format: tissue-based. The conditions noted are these: dose lower 1e-05 µM, dose upper 10 µM.
Series [15] concerns Rattus norvegicus. Description: Antinociceptive activity in Sprague-Dawley rat model of formalin-induced nociception pain assessed as reduction in pain behaviour by measuring less lifting of formalin injected hind paw during inflammatory phase at 30 to 150 microg/kg, IT. The series is classed as functional, organism-based. The settings on record: dose 30-150 µg/kg, time 21-60 min.

Series [16] relates to Rattus norvegicus. Nature of the series: Antinociceptive activity in Sprague-Dawley rat model assessed as effective dose administered intrathecally and co-treated with opioid antagonist naloxone and measured every 10 mins for 60 mins by radiant heat tail-flick test. The series is classed as functional, organism-based.
Series [17] concerns Rattus norvegicus. Nature of the series: Antinociceptive activity in Sprague-Dawley rat model of formalin-induced nociception pain assessed as reduction in pain behaviour by measuring less lifting of formalin injected hind paw during acute phase at 30 to 150 microg/kg, IT measured for 9 mins. The series is classed as functional, organism-based. The settings on record: dose 30-150 µg/kg.

The test system of series [18] is Rattus norvegicus. Nature of the series: Antinociceptive activity in Sprague-Dawley rat model assessed as maximum possible effect at 30 microg/kg, IT measured every 10 mins for 60 mins by radiant heat tail-flick test relative to control. Format: functional. The settings on record: dose 30 µg/kg, 1 h.
A short description of series [19]: Cardiotoxicity in Sprague-Dawley rat assessed as induction of […] at 1 mg/kg, iv measured up to 1000 seconds. Format: toxicity, organism-based. The conditions noted are these: in vivo, 0.2778 h, time 1000 sec.
In series [20] the test system is Rattus norvegicus. Description: Antinociceptive activity in Sprague-Dawley rat model assessed as increased in tail withdrawal latency administered intrathecally measured every 10 mins for 60 mins by radiant heat tail-flick test. Format: functional, organism-based. The conditions noted are these: dose 10-150 µg/kg.
In series [21] the test system is Rattus norvegicus. Nature of the series: Antinociceptive activity in Sprague-Dawley rat model assessed as effective dose administered intrathecally and measured every 10 mins for 60 mins by radiant heat tail-flick test. Format: functional. The conditions noted are these: central, 1 h.
A short description of series [22]: Cardiotoxicity in Sprague-Dawley rat assessed as decrease in mean arterial blood pressure at 0.01 to 1 mg/kg, iv measured up to 1000 seconds. The settings on record: in vivo, dose 0.01-1 mg/kg, time <=1000 sec. The series is classed as toxicity, organism-based.
Series [23] deals with Rattus norvegicus. Nature of the series: Antinociceptive activity in Sprague-Dawley rat model assessed as maximum possible effect at 10 microg/kg, IT measured every 10 mins for 60 mins by radiant heat tail-flick test relative to control. The series is classed as functional. The conditions noted are these: dose 10 µg/kg, 1 h.
For series [24], the system named is Rattus norvegicus. Nature of the series: Antinociceptive activity in Sprague-Dawley rat model assessed as maximum possible effect at 60 microg/kg, IT measured every 10 mins for 60 mins by radiant heat tail-flick test relative to control. The series is classed as functional. The conditions noted are these: dose 60 µg/kg, 1 h.
Series [25] addresses T1, Neurotensin receptor type 1. Description: Displacement of [3H]-neurotensin from NTS1 in human HT-29 cell membrane incubated for 20 mins by liquid scintillation counter analysis. Format: cell membranes.
Series [26] concerns Ileum. Description: Myorelaxant activity in Sprague-Dawley rat ileum assessed as reduction in carbachol-induced contractions by force transducer relaxation assay. Format: functional, tissue-based.

As a reminder, the Ki is the equilibrium dissociation constant of an inhibitor or competing ligand from its target. The half-life is the time in which the quantity being followed falls by half. What is called ED50 is the dose that gives a 50% effect, or the effect in half of the subjects. By EC50 is commonly meant the concentration needed to bring the measured effect to its halfway point.

Each structure is given as a SMILES string. Active and inactive are the calls of the source. Bridge positions count the residues as written; N and C are the ends. Square brackets hold non-standard residues; d marks the D form. Peptide text beside a SMILES is read from it. ξ: configuration not given here. NMeR = CN[C@@H](CCCNC(=N)N)C(=O)O; Aad = N[C@@H](CCCC(=O)O)C(=O)O; Pen = CC(C)(S)[C@H](N)C(=O)O; Tle = CC(C)(C)[C@H](N)C(=O)O; ξP = O=C(O)C1CCCN1

T1 sequence (P30989 whole entry): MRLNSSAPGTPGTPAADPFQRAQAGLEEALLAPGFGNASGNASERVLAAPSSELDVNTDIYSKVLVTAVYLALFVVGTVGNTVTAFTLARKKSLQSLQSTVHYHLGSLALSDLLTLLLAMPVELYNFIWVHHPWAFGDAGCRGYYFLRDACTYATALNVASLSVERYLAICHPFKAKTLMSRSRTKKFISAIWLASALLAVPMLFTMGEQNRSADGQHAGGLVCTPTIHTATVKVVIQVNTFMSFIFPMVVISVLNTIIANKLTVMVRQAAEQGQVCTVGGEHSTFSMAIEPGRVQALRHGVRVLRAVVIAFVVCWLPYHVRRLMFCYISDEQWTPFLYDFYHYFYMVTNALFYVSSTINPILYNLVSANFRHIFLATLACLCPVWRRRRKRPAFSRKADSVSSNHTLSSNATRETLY

For the compound `CC[C@H](C)[C@H](NC(=O)[C@@H]1Cc2ccc(cc2)OCCCCCC(=O)N[C@H](CCCNC(=N)N)C(=O)N2CCC[C@H]2C(=O)N1)C(=O)N[C@@H](CC(C)C)C(=O)O`, in series [1], the Ki was found to be 450 nM.
`CC[C@H](C)[C@H](NC(=O)[C@@H]1Cc2ccc(O)c(c2)C/C=C/CNCCC[C@H](N)C(=O)N[C@@H](CCCCN)C(=O)N2CCC[C@H]2C(=O)N1)C(=O)N[C@@H](CC(C)C)C(=O)O`: in the series with Rattus norvegicus [2], the MPE is given as 50%. In series [3], this compound had an inhibition constant (Ki) of 4.5 nM.
For `CN[C@@H](CCCNC(=N)N)C(=O)N[C@H]1CSSC(C)(C)[C@@H](C(=O)N[C@@H](CC(C)C)C(=O)O)NC(=O)[C@H](Cc2c[nH]c3ccccc23)NC(=O)[C@@H]2CCCN2C1=O` (H-[NMeR]CPW[Pen]L-OH; disulfide 2-5), the Ki in [4] was 83 nM.
In the case of `CC(C)C[C@H](NC(=O)[C@H](Cc1ccc(O)cc1)NC(=O)[C@@H]1C/C=C\C[C@H](N)C(=O)N[C@@H](CCCCN)C(=O)N[C@@H](CCCCN)C(=O)N1)C(=O)O`, the MPE in the series with Rattus norvegicus [5] was 98.6%; in the series with Rattus norvegicus [2], 98.5%; in the series with Rattus norvegicus [18], 32.5%; in the series on Rattus norvegicus [23] it was 13.1%; in the series on Rattus norvegicus [24] it was 73.1%. Also, the Ki in series [6] is 50 nM; in series [11] it was over 100000 nM. The half-life at 1000 µM in series [7] was 15 min; in series [10], over 1440 min. Also, the Emax with Rattus norvegicus [8] came out at 90 µg/kg. Moreover, the Activity entry in series [9] was “Non-Toxic”; with Rattus norvegicus [12] it was “<=45%”; in series [13], “Non-Toxic”; in the series on Ileum [14], “Non-Toxic”; in series [19], “Toxic”; in the series with Rattus norvegicus [20], “Dose-dependent effect”. Besides, the Activity entry in [22] was “Non-Toxic”. For the same compound, the result in the series on Rattus norvegicus [15], in the series on Rattus norvegicus [16] and in the series on Rattus norvegicus [17] was Active. Further, the ED50 in the series with Rattus norvegicus [21] was 0.0438 mg/kg.
Turning to `CC(C)C[C@@H]1NC(=O)[C@H](C(C)(C)C)NC(=O)[C@H](Cc2c[nH]c3ccccc23)NC(=O)[C@@H]2CCCN2C(=O)[C@H](CCCCN)NC(=O)[C@H](CCCNC(=N)N)NC1=O` (cyclo(KPW[Tle]LR)), the Ki in series [4] was found to be 410 nM.
Regarding `CC(C)C[C@H](NC(=O)[C@@H]1CCC(=O)NCC(=O)N(C)[C@@H](CCCNC(=N)N)C(=O)N[C@@H](CCCCN)C(=O)N2CCCC2C(=O)N[C@@H](Cc2c[nH]c3ccccc23)C(=O)N1)C(=O)O` (stereo partly drawn) (G[NMeR]K[ξP]WEL-OH; lactam N-6), the Ki in [25] is 3500 nM.
Take `CC[C@H](C)[C@H](NC(=O)[C@H](Cc1ccc(O)cc1)NC(=O)[C@@H]1CCCN1C(=O)[C@H](CCCNC(=N)N)NC(=O)[C@@H](N)CCCNC(=N)N)C(=O)N[C@@H](CC(C)C)C(=O)O`: the half-life at 1000 µM is 1.6 min in series [7] and 894 min in series [10]. Also, the Activity result in [13] is “<= 50 mmHg”; in the series on Ileum [26], “Dose-dependent effect”. Besides, the EC50 in the series with Ileum [26] is 3.9 nM.
The compound `CC(C)C[C@H](NC(=O)[C@@H]1CCCC(=O)N[C@@H](CCCNC(=N)N)C(=O)N[C@@H](CCCCN)C(=O)N2CCC[C@H]2C(=O)N[C@@H](Cc2c[nH]c3ccccc23)C(=O)N1)C(=O)O` (RKPW[Aad]L-OH; lactam N-5) registered an inhibition constant Ki in [4] of 16 nM.
